The source of these data is BindingDB's records for patent US8633204 (Pfizer, 2014).

Each structure is given as a SMILES string.

For this experiment, the target named is Phosphatidylinositol 4,5-bisphosphate 3-kinase catalytic subunit alpha isoform (Mus musculus, UniProt P42337). Nature of the experiment: Biochemical Assay. To be noted: pH 7.4; 25 °C. As for the experimental part: Compounds of the present invention were evaluated for potency against PI3-Kα using an in vitro kinase assay. PI3-Kα activity is measured in vitro by determining the level of phosphorylation of the substrate PI(4,5)P2. The formation of product PI(3,4,5)P3 is monitored by binding to the Grip1 PH domain in a ligand displacement fluorescence polarization (FP) assay, in which the TAMRA-labeled PI(3,4,5)P3 complexed with Grip1 PH domain is displaced by PI(3,4,5)P3 formed in the PI3-Kα reaction resulting in a decrease in FP signal.
Phosphatidylinositol 4,5-bisphosphate 3-kinase catalytic subunit alpha isoform, sequence (P42337 whole entry, the tested form may be a part, canonical isoform): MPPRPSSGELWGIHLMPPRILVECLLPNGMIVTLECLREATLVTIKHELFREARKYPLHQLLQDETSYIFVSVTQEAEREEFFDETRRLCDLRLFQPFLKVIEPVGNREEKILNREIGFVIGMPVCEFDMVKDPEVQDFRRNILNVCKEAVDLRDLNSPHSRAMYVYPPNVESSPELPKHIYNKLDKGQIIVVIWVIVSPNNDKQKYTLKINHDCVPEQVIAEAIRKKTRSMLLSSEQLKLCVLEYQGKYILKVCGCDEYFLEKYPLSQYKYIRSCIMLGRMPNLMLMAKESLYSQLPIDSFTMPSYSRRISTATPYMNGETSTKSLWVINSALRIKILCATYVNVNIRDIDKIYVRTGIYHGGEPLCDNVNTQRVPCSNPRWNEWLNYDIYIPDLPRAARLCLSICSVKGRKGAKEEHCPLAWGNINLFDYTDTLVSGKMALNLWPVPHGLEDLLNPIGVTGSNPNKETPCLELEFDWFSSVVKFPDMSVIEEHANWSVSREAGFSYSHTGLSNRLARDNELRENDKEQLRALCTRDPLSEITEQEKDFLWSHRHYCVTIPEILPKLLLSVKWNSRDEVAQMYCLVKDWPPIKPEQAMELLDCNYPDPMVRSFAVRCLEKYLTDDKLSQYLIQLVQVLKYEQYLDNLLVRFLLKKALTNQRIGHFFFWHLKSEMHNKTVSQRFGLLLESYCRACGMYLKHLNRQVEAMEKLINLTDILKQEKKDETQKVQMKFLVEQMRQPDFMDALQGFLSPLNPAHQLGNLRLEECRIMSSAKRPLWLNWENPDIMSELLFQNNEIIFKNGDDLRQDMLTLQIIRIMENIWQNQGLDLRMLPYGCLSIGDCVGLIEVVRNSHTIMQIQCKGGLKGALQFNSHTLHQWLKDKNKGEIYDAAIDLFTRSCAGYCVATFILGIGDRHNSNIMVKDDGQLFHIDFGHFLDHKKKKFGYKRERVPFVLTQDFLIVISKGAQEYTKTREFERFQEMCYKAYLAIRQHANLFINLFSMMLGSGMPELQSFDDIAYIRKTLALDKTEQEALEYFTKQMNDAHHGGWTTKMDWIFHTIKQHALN
Regarding `Cc1nc(N)nc2c1cc(-c1cccnc1N)c(=O)n2C1CCCC1` [US8633204, 125], the IC50 – broadly, the concentration that inhibits the measured activity by half – came to 1.43 µM.

Molecule `Cc1nc(N)nc2c1cc(Br)c(=O)n2[C@H]1CC[C@H](O)CC1` [US8633204, 157] displayed an IC50 of 0.044 µM.

As to `CCNc1nc(C)c2cc(-c3cccc(O)c3)c(=O)n(C3CCCC3)c2n1` [US8633204, 144], the IC50 amounted to 0.00101 µM.

`Cc1nc(N)nc2c1cc(-c1cn[nH]c1)c(=O)n2C1CCC(=O)CC1` [US8633204, 176]: the concentration for half-maximal inhibition (IC50) is 0.012 µM.

On to `Cc1nc(N)nc2c1cc(Br)c(=O)n2CC(C)(C)O` [US8633204, 167], for which the IC50 turned out to be 0.68 µM.

In turn, `CCNc1nc(C)c2cc(-c3ccc(O)c(OC)c3)c(=O)n(C3CCCC3)c2n1` [US8633204, 136] yielded an IC50 of 0.00308 µM.

In the case of `Cc1nc(N)nc2c1cc(-c1cnn(C)c1)c(=O)n2C1CCCC1` [US8633204, 235], the IC50 came out at 0.032 µM.
